Experimental data taken from patent US8278265B2, “Methods, kits and compositions comprising crotamine” (Fundacao de Amparo a Pesquisa do Estado de Sao Paulo—FAPESP, priority 2005, dated 2012).

Columns and labels:
human fibroblasts = test: In vitro incorporation of Cy3-crotamine in human fibroblasts; type: cell-based; settings: after one hour of incubation, FIG. 2A
Method: (§1) Embrionary stem cells (ES) from mice, line USP-1 (Soukoyan, M. A., Kerkis, A. Y., Mello, M. R. B., Kerkis, I. E., Visintin, J. A., Pereira, L. V. (2002), Establishment of New Murine Embryonic Stem Cell Lines for the Generation of Mouse Models of Human Genetic Diseases, Braz. J. Med. Biol. Res. 35, 535-542) in the passage 8-10 were cultured on a layer of γ-irradiated embrionary fibroblasts of mice, kept in DMEM (Gibco, U.S.A.), supplemented with 15% FCS (Gibco, U.S.A.), 1 mM sodium piruvate, 1% non-essential amino acids, 0.1 mM β-mercaptoethanol and 1×103 U/ml murine Leukemia Inhibitor Factor (LIF) (ESGRO-LIF, Gibco). Human lymphoblastoids and primary fibroblasts were cultivated in DMEM and in RPMI, respectively, supplemented with 10% FCS with no antibiotics. Cultures were kept under humid atmosphere at 37° C. and 5% CO2.
(§2) In vitro assay: Semiconffluent cultures of pluripotent and differentiation ES cells (homogeneous cell population), as well as other cell cultures of normal and tumor origin, were kept in small laminar slides placed in 24-well plates containing appropriate culture medium. Cells were incubated for 2-3 minutes to 72 hours in the presence of Cy3-crotamine, under concentrations between 10 μM and 0.01 μM, or as control, just in the presence of the dye agent Cy3 diluted in 1 ml PBS (control). […]

[1] = tested on: Murine pluripotent embryonic stem cells; test: In vitro incorporation of Cy3-crotamine in pluripotent embryonic stem cells; type: cell-based; settings: FIG. 2D and E
Method: as §1, §2

[2] = tested on: actively proliferating cells; test: Marker for actively proliferating cells (BrDU co-labeling); type: cell-based, mice; settings: FIG. 8E-H
Text: The hanging drop method was used, with some amendments, to induce the differentiation of ES cells from USP-1 line (Wobus, A. M., Wallukat, G., Hescheler, J. (1991), Pluripotent Mouse Embryonic Cells are Able to Differentiate into Cardiomyocytes Expressing Chronotropic Responses to Adrenergic and Cholinergic Agents and Ca^2+ Channel Blockers, Differentiation 48, 173-182). Briefly, ES cell suspensions without fibroblasts were obtained, collected with 0.25% trypsin/EDTA (Gibco, U.S.A.). Said suspension was diluted up to 3.5×10^4 cells/ml and dropped by using a micropipette (25 μl per drop) on the Petri dish cap (10 cm). Drops adhered to the surface were turned upside down over the plate already containing 5 ml PBS. After three days in a CO2 oven, in the hanging drop culture in appropriate culture medium for ES, with no LIF, aggregates are formed, known as embryonic bodies (EBs). EBs were later transferred to another plate (35 mm) with a 1% agarose layer, and maintained in the CO2 oven at 37° C. On the fifth day, EBs were transferred to microscope slides, on another Petri dish, where they adhered and started differentiating into a monolayer.
Embryonic bodies, obtained according to the protocol as described above, after three days, adhered to small glass slides. […] Microscope slides were assembled in a PBS/glycerol solution (1:1) and analysed in a confocal microscope. […]

plasmid DNA = test: Peptide-DNA interaction by circular dichroism; type: binding; settings: molar ratio 200:1 and 1:1 (crotamine:DNA), absence and presence of 150 mM NaCl
Method: Circular dichroism spectra were taken in a spectropolarymeter JASCO 810 with a Peltier system for temperature control. The device is regularly calibrated with recrystallized d-10 camphorsulfonic acid. Standards used for the equipment were: wavelength range 190-260 nm; sensitivity 100 mdeg; resolution 0.5 nm; response 8 s; reading speed 50 nm/min; 8 accumulations; temperature 37° C. Samples were analysed in a 1 mm optical path cell in 10 mM sodium phosphate buffer, pH 7.4, in the presence or absence of 150 mM NaCl. The crotamine concentration used was 20 μM and plasmid DNA concentration was 0.1 μM. […]

B16F10 cells = test: Tumor treatment with natural crotamine; type: in vivo, Balb/c mouse
Method: The cells were maintained in Dulbecco's modified Eagle's cell culture medium (DMEM; Invitrogen, Carlsbad, Calif.) supplemented with 15% fetal calf serum (FCS; Invitrogen). The cells were kept at 37° C. with humidity and 5% CO2. After preparing a cell suspension with about 5×10^6 cells/ml of PBS [phosphate buffered solution], approximately 0.2 ml of this suspension was subcutaneously or endovenously (retroorbital injection) injected into each Balb/c mouse, of 4 to 6 weeks-old with body weight between 16 to 20 g. For negative control, the animals were injected with 0.2 ml of PBS. Before setting up the experiments, the animals were kept under 12 hour light-dark cycle, and were allowed to have water and food ad libitum. All animals were caged and handled under ethical conditions according to international rules of animal care, stated by the International Animal Welfare Recommendations, and in accordance with the Guidelines for the Use of Animals in Biochemical Research
30 minutes after endogenous injection of B16F10 cells, as described above, the animals were treated with 1 μg of crotamine/animal by daily subcutaneous injection, during 21 days.

mice = settings: injected intraperitoneally; cited from earlier work

YKQCHKKGGHCFPKEKICLPPSSDFGKMDCRWRWK CCKKGSG (YKQCHKKGGHCFPKEKICLPPSSDFGKMDCRWRWKCCKKGSG; UniProt Q9PWF3 23-64, looked up) [crotamine]
labeling of human fibroblasts (human fibroblasts): intensively marked
signal on cell islets of pluripotent embryonic stem cells [1]: strong signal
co-location with BrDU staining in actively proliferating ES cells [2]: co-location
interaction with plasmid DNA by circular dichroism spectra (plasmid DNA): presence of interaction
tumor positive animals, 18th day (B16F10 cells; 1 μg/animal daily s.c., day 18): 3
tumor positive animals, 20th day (B16F10 cells; 1 μg/animal daily s.c., day 20): 2
Total positive animals up to 21th day (B16F10 cells; 1 μg/animal daily s.c., days 10-21): 5 posit.
effect on tumor formation compared to the control group (B16F10 cells; 1 μg/animal daily subcutaneous injection, 21 days): delay or even inhibited the tumor formation
tumor positive animals, 25th day (B16F10 cells; observation after end of treatment, day 25): 9
tumor positive animals, 29th day (B16F10 cells; observation after end of treatment, day 29): 9
tumor positive animals, 35th day (B16F10 cells; observation after end of treatment, day 35): 12
tumor positive animals, 48th day (B16F10 cells; observation after end of treatment, day 48): 12
ratio of positives (B16F10 cells; up to day 21): 0.33
time to paralysis of the hind legs (mice): less than 15 minutes
